# Laboratory results from EP1813636A1, “Polyamine analogs that activate antizyme frameshifting” (MediQuest Therapeutics, Inc., priority 2004, dated 2007).
# pEC50, pIC50, pKi: −log10 of the molar value.
# Experiments:
# ODC = target: T1, ODC (Homo sapiens, UniProt P11926); details: inhibition of ODC; cited from earlier work
# T1 sequence (P11926 1-461): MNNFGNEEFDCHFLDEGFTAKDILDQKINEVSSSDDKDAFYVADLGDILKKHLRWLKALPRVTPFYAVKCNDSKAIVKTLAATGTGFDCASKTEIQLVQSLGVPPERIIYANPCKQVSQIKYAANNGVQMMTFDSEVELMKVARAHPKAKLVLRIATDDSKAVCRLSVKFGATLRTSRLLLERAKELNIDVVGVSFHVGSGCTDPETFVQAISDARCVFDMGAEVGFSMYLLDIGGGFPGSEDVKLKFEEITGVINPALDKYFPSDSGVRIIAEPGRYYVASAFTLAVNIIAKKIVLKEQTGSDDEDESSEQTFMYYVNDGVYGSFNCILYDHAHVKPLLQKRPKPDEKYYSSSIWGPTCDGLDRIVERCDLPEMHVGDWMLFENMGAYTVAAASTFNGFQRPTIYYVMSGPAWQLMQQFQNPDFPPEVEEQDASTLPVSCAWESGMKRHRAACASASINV
# HEK-293 cells [1] = experiment: rescue from DFMO-induced growth inhibition (6 days, MTS/PMS dye assay); format: cell-based; details: 25 µM compound, 2.5 mM DFMO
# Procedure: The rescue coefficient represents the ratio of cell growth, as measured by O.D., of the test compound with 2.5 mM DFMO versus 2.5 mM DFMO alone.
# HEK-293 cells are plated in 96-well assay plates at 1,000 cells per well in 100 µL of medium (DMEM supplemented with 10% fetal bovine serum (Gibco), 1% penicillin, streptomycin and L-glutamine). The cells are incubated overnight at 37°C in an atmosphere of 5% CO2. Compounds are added the next day to a final concentration of 25 µM along with 1 mM aminoguanidine (inhibits serum amine oxidase) and 2.5 mM DFMO in a final volume of 200 µL medium. The positive control contained 25 µM spermidine. The cells are allowed to incubate for 6 days before cell growth is measured by MTS/PMS dye assay (Cell Titer 96 Aqueous Non-Radioactive Cell Proliferation Assay, Promega). […] Therefore, DFMO alone has a value of one. […] If the value is less than one, then the compound is growth inhibitory. If the value is 0, the compound is cytotoxic.
# antizyme = details: 10 µM; cited from earlier work
# HEK-293 cells [2] = experiment: cells
# Procedure: Cell number was determined by MTS/PMS assay from triplicate wells. Cells are plated in 96-well plates such that they would be in log growth for the duration of the assay. The day after plating, the polyamine analogs are added to the cells, and growth, if any, permitted to continue for six days in the presence of 1 mM AG and 1 µM SPD when appropriate. At the end of six days, cell growth is measured by MTS/PMS dye assay (Cell Titer 96 Aqueous Non-Radioactive Cell Proliferation Assay; Promega, Madison, WI).
# antizyme frameshifting = experiment: dual luciferase reporter assay for antizyme frameshifting in HEK-293 cells; format: cell-based; details: for frameshift-rescue factor (FRF): %RF multiplied by the inverse of the rescue coefficient
# Procedure: Frameshifting can be detected using a dual luciferase reporter system that measures the efficiency of antizyme translational frameshifting (Grentzmann, G. et. al., RNA 4:479-486 (1998); Howard, M. et. al., Genes to Cells 6:931-941 (2001)). Frameshifting efficiency is determined by comparing the ratio of firefly luciferase to renilla luciferase activity in cells transfected in parallel using a control vector containing a constitutive […] (AZ-IF) that measures the in-frame translation efficiency and a vector containing the inducible 0 to +1 frameshift (AZ1) construct. In these constructs, the renilla luciferase gene is upstream of the firefly luciferase gene which are separated by a short cloning sequence containing the portions of antizyme 1 and 2 known to contain the mRNA signals for polyamine stimulated frameshifting. Using a 96-well format, this assay system gives a quantitative measure of the efficiency of the polyamines, polyamine analogs and other compounds to induce frameshifting in a cell-based bioassay. Cells must be pretreated with α-difluoromethylomithine (DFMO), an irreversible inhibitor of ODC, prior to screening to decrease the basal antizyme frameshifting levels and increase the sensitivity to polyamine or compound-mediated stimulation of antizyme frameshifting.
# Figure 1 is a tabular representation of a large number of polyamines A-S (25 µM) that were tested for their ability to induce antizyme frameshifting using the dual luciferase reporter assay. The percent relative frameshifting value (% RF) gives a comparison of the ability of a compound to induce frameshifting compared to 25 µM spermidine. The % RF was calculated as follows. The background percent frameshifting activity determined from the 2.5 mM DFMO negative control was subtracted from the percent frameshifting activity for all compounds including the spermidine control. The background corrected frameshifting activity of each compound was then divided by the background corrected frameshifting activity induced by 25 µM spermidine and multiplied by 100. The compounds were also evaluated for their ability to rescue cells from DFMO-induced growth inhibition by determining their rescue coefficient. The rescue coefficient represents the ratio of the cell growth, as measured by O.D., in the presence of the test compound with 2.5 mM DFMO to the growth in the presence of 2.5 mM DFMO alone. The frameshift-rescue factor (FRF) is a useful factor to compare the effectiveness of the various antizyme frameshifters by taking into account their potency for inducing frameshifting and ability to rescue cells from DFMO-induced growth inhibition. The FRF was calculated by multipling the %RF value by the inverse of the rescue coefficient.
# Values represent percent frameshifting following transient transfection of an AZ1-IF control and the inducible 0 to +1 AZ1 plasmid construct into HEK-293 cells grown in the presence of 2.5 mM DFMO. The compounds were added to the cells after transfection and incubated overnight before assaying the next day. Each value represents triplicate measurements.
# A series of compounds are screened for their ability to induce frameshifting using the dual luciferase reporter assay. HEK-293 cells are plated in white sided, clear-bottomed 96-well assay plates at 15,000 cells per well in 100 µL of medium (DMEM supplemented with 10% fetal bovine serum (Gibco), 1% penicillin, streptomycin and L-glutamine) containing 2.5 mM DFMO. […]
# HEK-293 cells [3] = experiment: intracellular polyamine levels (HPLC) and cell growth after 6-day incubation; format: cell-based
# Procedure: Figure 6 is a graph showing the effect of a 6-day incubation of compound A on HEK-293 cellular polyamine levels and cell growth. All flasks received 1 mM aminoguanidine. Cells were washed, counted, lysed in perchloric acid, dansylated and polyamine levels determined by HPLC. Each value represents the average of triplicate values with the error bars representing standard deviation. Figure 7 illustrates the effect of extracellular compound A on the intracellular concentration of compound A in HEK-293 cells as determined by HPLC. Cells were prepared as in Figure 6. Peak area was normalized by dividing the peak area of the compound divided by the peak area of the internal standard, diaminoheptane. Values represent at least triplicate measurements with the error bars representing standard deviation.
# Compound A is further evaluated to determine if it depletes intracellular polyamine levels in HEK-293 cells in a dose-dependent fashion (Fig. 6). […] After overnight incubation at 37°C in an atmosphere of 5% CO2, compound A is added along with 1 mM aminoguanidine. The flasks are then incubated for 6 days at 37°C in an atmosphere of 5% CO2. The cells are harvested by washing twice with ice-cold 1X PBS, trypsinized, counted, and lysed in 0.4 N perchloric acid. Diaminoheptane is used in all dansylation reactions as an internal standard. Peak area is normalized by dividing the peak area of the compound divided by the peak area of the internal standard. The HPLC method for the fluorometric detection of polyamines from the cell extracts is based on the procedure by Kabra (Kabra, P. M. et. al. J. Chromatogr. 380:19-32 (1986)).
smiles,measurement,setting,value
"NC/C=C/CN [1,4-diamino-trans-2-butene]",pKi,ODC,5.70
"Nc1ccc(N)cc1 [1,4-phenylenediamine]",pKi,ODC,4.34
"N=C(N)NCCCCN [Agmatine, reference compound]",ability to rescue cells from DFMO-induced growth inhibition,HEK-293 cells [1],somewhat better than either A or B
"CCNCCCCNCCCCNCCCCNCCCCNCC [BE-4-4-4-4, 1,19-bis(ethylamino)-5,10,15-triazanonadecane]",antizyme induction compared with spermine,antizyme,induce antizyme as well as spermine
NCCCNCc1ccc(CN)cc1 [Compound A],concentration range of compound A in which 1 µM spermidine rescues cells from growth inhibition,"HEK-293 cells [2]; HEK-293 cells, addition of 1 µM spermidine",3 to 100 µM
same,pIC50,"HEK-293 cells [2]; Homo sapiens, HEK293, 144 h, read-out: IC50 for growth inhibition, HEK-293 cells, 6 days, 1 mM aminoguanidine",~4.22
same,frameshift-rescue factor (FRF),antizyme frameshifting; 25 µM,120
same,pEC50,"antizyme frameshifting; Homo sapiens, HEK293, HEK-293 cells, 2.5 mM DFMO, concentration giving 50% of the maximum percent frameshifting (plateau), read-out: EC50 for induction of frameshifting",~3.92
same,cell growth decreasing by,"HEK-293 cells [3]; 10 µM compound A, 6 days",32%
same,spermidine levels down by,"HEK-293 cells [3]; 10 µM compound A, 6 days",about 90%
same,cell growth decreasing by,"HEK-293 cells [3]; 30 µM compound A, 6 days",38.5%
same,spermine levels reduced by,"HEK-293 cells [3]; 100 µM compound A, 6 days",50%
same,"spermine levels, percent of normal",HEK-293 cells [3]; compound A levels above 30 µM,approximately 50%
NCCCCNCc1ccc(CNCCCN)cc1 [Compound B],potency in inducing antizyme frameshifting compared with agmatine,"antizyme frameshifting; 25 µM, Fig 2",more potent than agmatine
same,frameshift-rescue factor (FRF),antizyme frameshifting; 25 µM,83
same,ability to rescue cells from DFMO-induced growth inhibition,HEK-293 cells [1],neither compound A nor B significantly rescue cells
"NCCCN(CCCN)Cc1ccc(CN(CCCN)CCCN)cc1 [Compound S, reference compound]",%RF (percent relative frameshifting),"antizyme frameshifting; 25 µM compound, relative to 25 µM spermidine",100%
CCNCCCCNCCCCNCCCCNCC [bisethylhomospermine],antizyme induction compared with spermine,antizyme,induce antizyme as well as spermine
CCNCCCNCCCNCCCNCC [bisethylnorspermine],antizyme induction compared with spermine,antizyme,induce antizyme as well as spermine
